# According to patent publication US8865182B2 (priority 2009, dated 2014):
# Test system: HLA class II molecules (HLA-DRB1*0101, *0301, *0401, *0404, *0405, *0701, *0802, *0901, *1101, *1302, *1501, HLA-DRB4*0101, HLA-DRB5*0101)
# Format: binding, human
row,Sequence,# Alleles Bound
1,CPKYVKSNRLVLATGL [SEQ ID NO: 7],12
2,ELLVLMENERTLDFHDS [SEQ ID NO: 9],8
3,ILSIYSTVASSLALAI [SEQ ID NO: 12],12
4,ISGVKLESIGIYQILSI [SEQ ID NO: 10],10
5,IYQILSIYSTVASSLA [SEQ ID NO: 11],13
6,KSSFFRNVVWLIKKN [SEQ ID NO: 2],12
7,MEKIVLLFAIVSLVKSD [SEQ ID NO: 1],6
8,NRLVLATGLRNSPQR [SEQ ID NO: 8],10
9,PTTYISVGTSTLNQRL [SEQ ID NO: 4],9

# Test system: HLA-A3 supertype (A*0301, A*1101, A*3101, A*3301, A*6801)
# Format: binding, human
row,Sequence,# Alleles Bound
1,ALANTIEVFR (Influenza Virus) [SEQ ID NO: 226],3
2,ALMEWLKTR (Influenza Virus) [SEQ ID NO: 73],5
3,ALTLNTMTK (Influenza Virus) [SEQ ID NO: 229],2
4,AQMALQLFIK (Influenza Virus) [SEQ ID NO: 237],2
5,ASCMGLIYNR [SEQ ID NO: 74],4
6,ASYKIFKIEK (Influenza Virus) [SEQ ID NO: 95],2
7,ATTHSWIPK (Influenza Virus) [SEQ ID NO: 239],4
8,ATTHSWIPKR (Influenza Virus) [SEQ ID NO: 240],2
9,AVASGYDFER (Influenza Virus) [SEQ ID NO: 123],3
10,FQLIPMISK (Influenza Virus) [SEQ ID NO: 182],2
11,FSFGGFTFK [SEQ ID NO: 284],5
12,FSFGGFTFKR (Influenza Virus) [SEQ ID NO: 285],5
13,GTFDTVQIIK (Influenza Virus) [SEQ ID NO: 291],3
14,GTFEFTSFFY [SEQ ID NO: 235],4
15,GTFGPVHFR (Influenza Virus) [SEQ ID NO: 282],5
16,GTMVMELIR (Influenza Virus) [SEQ ID NO: 121],3
17,HIYYLEKANK (Influenza Virus) [SEQ ID NO: 178],4
18,HQLLRHFQK (Influenza Virus) [SEQ ID NO: 288],3
19,IQNSITIER (Influenza Virus) [SEQ ID NO: 117],2
20,ITGFAPFSK (Influenza Virus) [SEQ ID NO: 93],3
21,ITGWAIFSK (Influenza Virus) [SEQ ID NO: 94],3
22,KFFPSSSYR (Influenza Virus) [SEQ ID NO: 243],4
23,KFLLMDALK (Influenza Virus) [SEQ ID NO: 179],2
24,KFLPDLYDYK (Influenza Virus) [SEQ ID NO: 177],2

row,Sequence,# Alleles Bound
1,KIPKTKNMKK (Influenza Virus) [SEQ ID NO: 181],2
2,KLLLIVQALR (Influenza Virus) [SEQ ID NO: 188],3
3,KLVGINMSK (Influenza Virus) [SEQ ID NO: 233],2
4,KLVGINMSKK (Influenza Virus) [SEQ ID NO: 234],2
5,KQIVERILK (Influenza Virus) [SEQ ID NO: 145],2
6,KTNLYGFIIK [SEQ ID NO: 183],4
7,KVYKTYFEK [SEQ ID NO: 281],3
8,LFFKCIYRR (Influenza Virus) [SEQ ID NO: 83],4
9,LLPFAAAPPK (Influenza Virus) [SEQ ID NO: 292],4
10,LQLFIKDYR (Influenza Virus) [SEQ ID NO: 238],3
11,MITQFESLK [SEQ ID NO: 156],3
12,MQGSTLPRR (Influenza Virus) [SEQ ID NO: 120],2
13,MTKEFFENK (Influenza Virus) [SEQ ID NO: 186],5
14,MVLSAFDER [SEQ ID NO: 118],4
15,MVMELIRMIK (Influenza Virus) [SEQ ID NO: 122],4
16,MVTQRTIGK (Influenza Virus) [SEQ ID NO: 227],4
17,MVTQRTIGKK (Influenza Virus) [SEQ ID NO: 228],3
18,NLYGFIIKGR (Influenza Virus) [SEQ ID NO: 184],4
19,QTYDWTLNR (Influenza Virus) [SEQ ID NO: 225],4
20,RIMEMIPER (Influenza Virus) [SEQ ID NO: 277],4
21,RLFFKCIYR (Influenza Virus) [SEQ ID NO: 81],5
22,RLFFKCIYRR [SEQ ID NO: 82],5
23,RTFFGWKEPY (Influenza Virus) [SEQ ID NO: 180],3
24,SFGGFTFKR (Influenza Virus) [SEQ ID NO: 286],4

row,Sequence,# Alleles Bound
1,SFSFGGFTFK (Influenza Virus) [SEQ ID NO: 283],5
2,SIAPIMFSNK (Influenza Virus) [SEQ ID NO: 231],4
3,SICNTTGVEK (Influenza Virus) [SEQ ID NO: 176],4
4,SINELSNLAK (Influenza Virus) [SEQ ID NO: 294],3
5,SLMQGSTLPR (Influenza Virus) [SEQ ID NO: 119],4
6,SQDPTMLYNK (Influenza Virus) [SEQ ID NO: 290],2
7,STVHYPKVYK (Influenza Virus) [SEQ ID NO: 279],4
8,SVQPTFSVQR (Influenza Virus) [SEQ ID NO: 124],4
9,SVQRNLPFER [SEQ ID NO: 126],4
10,TFEFTSFFYR (Influenza Virus) [SEQ ID NO: 236],4
11,TIGECPKYVK (Influenza Virus) [SEQ ID NO: 66],1
12,TLARSICEK (Influenza Virus) [SEQ ID NO: 230],3
13,TQFESLKLYR (Influenza Virus) [SEQ ID NO: 157],3
14,TTSTVHYPK (Influenza Virus) [SEQ ID NO: 278],5
15,TTVDHMAIIK (Influenza Virus) [SEQ ID NO: 275],2
16,TVDHMAIIK (Influenza Virus) [SEQ ID NO: 276],2
17,TVHYPKVYK (Influenza Virus) [SEQ ID NO: 280],5
18,VLRGFLILGK (Influenza Virus) [SEQ ID NO: 293],3
19,VLTGNLQTLK (Influenza Virus) [SEQ ID NO: 287],2
20,VQPTFSVQR (Influenza Virus) [SEQ ID NO: 125],3
21,VVFCGTSGTY (Influenza Virus) [SEQ ID NO: 96],2
22,VVSIDRFLR (Influenza Virus) [SEQ ID NO: 289],4
23,YQKCCNLFEK (Influenza Virus) [SEQ ID NO: 242],2
24,YQKCCTLFEK (Influenza Virus) [SEQ ID NO: 241],2
